Measured values from ChEMBL document CHEMBL3885881, “DrugMatrix”.

Organism: Rattus norvegicus
Assay: DrugMatrix - Regimen: Daily Repeat
Type: toxicity, organism-based, Sprague-Dawley
Design: regimen Daily Repeat, gender Male, age 6-8 weeks
Details: in vivo, po, route oral GAVAGE, vehicle 100 % WATER; for ABSOLUTE BASOPHIL / ABSOLUTE EOSINOPHIL / ABSOLUTE LYMPHOCYTE / ABSOLUTE MONOCYTE / ABSOLUTE SEGMENTED NEUTROPHIL / BASOPHIL / EOSINOPHIL / ERYTHROCYTE COUNT / HEMATOCRIT / HEMOGLOBIN / LEUKOCYTE COUNT / LYMPHOCYTE / MEAN CORPUSCULAR HEMOGLOBIN / MEAN CORPUSCULAR HEMOGLOBIN CONCENTRATION / MEAN CORPUSCULAR VOLUME / MONOCYTE / NEUTROPHIL / NUCLEATED RED BLOOD CELLS / PLATELET COUNT: tissue Blood; for ALANINE AMINOTRANSFERASE / ALBUMIN / ALKALINE PHOSPHATASE / ASPARTATE AMINOTRANSFERASE / BLOOD UREA NITROGEN / CARBON DIOXIDE / CHLORIDE / CHOLESTEROL / CREATINE PHOSPHOKINASE / CREATININE / GLUCOSE / LACTATE DEHYDROGENASE / LIPASE / PHOSPHORUS / POTASSIUM / SODIUM / TOTAL BILIRUBIN / TOTAL PROTEIN / URIC ACID: tissue Plasma
[1] = 50 mg/kg, 120 h, dose level Low, time 5 day
[2] = 1500 mg/kg, 72 h, dose level High, time 3 day
[3] = 1500 mg/kg, 120 h, dose level High, time 5 day

Cc1ncc([N+](=O)[O-])n1CCO [METRONIDAZOLE]
ABSOLUTE BASOPHIL [1]: 0 CELLS/uL
ABSOLUTE EOSINOPHIL [1]: 0 CELLS/uL
ABSOLUTE LYMPHOCYTE [1]: 11707 CELLS/uL
ABSOLUTE MONOCYTE [1]: 0 CELLS/uL
ABSOLUTE SEGMENTED NEUTROPHIL [1]: 459.67 CELLS/uL
BASOPHIL [1]: 0%
EOSINOPHIL [1]: 0%
ERYTHROCYTE COUNT [1]: 6 x10E6/uL
HEMATOCRIT [1]: 36.43%
HEMOGLOBIN [1]: 13.8 G/DL
LEUKOCYTE COUNT [1]: 12.17 x10E3/uL
LYMPHOCYTE [1]: 96.33%
MEAN CORPUSCULAR HEMOGLOBIN [1]: 23.03 pg
MEAN CORPUSCULAR HEMOGLOBIN CONCENTRATION [1]: 37.87 G/DL
MEAN CORPUSCULAR VOLUME [1]: 60.9 fL
MONOCYTE [1]: 0%
NEUTROPHIL [1]: 3.67%
NUCLEATED RED BLOOD CELLS [1]: 0.33 /100WBC
PLATELET COUNT [1]: 986 x10E3/uL
ALANINE AMINOTRANSFERASE [1]: 61 u/L
ALBUMIN [1]: 4.07 G/DL
ALKALINE PHOSPHATASE [1]: 338 u/L
ASPARTATE AMINOTRANSFERASE [1]: 108.33 u/L
BLOOD UREA NITROGEN [1]: 13.67 mg/dL
CARBON DIOXIDE [1]: 30.67 mmol/L
CHLORIDE [1]: 100.33 MEQ/L
CHOLESTEROL [1]: 67 mg/dL
CREATINE PHOSPHOKINASE [1]: 1022 u/L
CREATININE [1]: 0.16 mg/dL
GLUCOSE [1]: 151.33 mg/dL
LACTATE DEHYDROGENASE [1]: 207.67 u/L
LIPASE [1]: 10.67 u/L
PHOSPHORUS [1]: 11.73 mg/dL
POTASSIUM [1]: 5.65 MEQ/L
SODIUM [1]: 145.1 MEQ/L
TOTAL BILIRUBIN [1]: 0.13 mg/dL
TOTAL PROTEIN [1]: 6.17 G/DL
URIC ACID [1]: 1 mg/dL
ABSOLUTE BASOPHIL [2]: 0 CELLS/uL
ABSOLUTE EOSINOPHIL [2]: 49.33 CELLS/uL
ABSOLUTE LYMPHOCYTE [2]: 11170.67 CELLS/uL
ABSOLUTE MONOCYTE [2]: 122.67 CELLS/uL
ABSOLUTE SEGMENTED NEUTROPHIL [2]: 924 CELLS/uL
BASOPHIL [2]: 0%
EOSINOPHIL [2]: 0.33%
ERYTHROCYTE COUNT [2]: 5.75 x10E6/uL
HEMATOCRIT [2]: 36.7%
HEMOGLOBIN [2]: 14.07 G/DL
LEUKOCYTE COUNT [2]: 12.27 x10E3/uL
LYMPHOCYTE [2]: 91.33%
MEAN CORPUSCULAR HEMOGLOBIN [2]: 24.47 pg
MEAN CORPUSCULAR HEMOGLOBIN CONCENTRATION [2]: 38.33 G/DL
MEAN CORPUSCULAR VOLUME [2]: 63.8 fL
MONOCYTE [2]: 1%
NEUTROPHIL [2]: 7.33%
NUCLEATED RED BLOOD CELLS [2]: 0 /100WBC
PLATELET COUNT [2]: 1295.67 x10E3/uL
ALANINE AMINOTRANSFERASE [2]: 71 u/L
ALBUMIN [2]: 4.03 G/DL
ALKALINE PHOSPHATASE [2]: 332 u/L
ASPARTATE AMINOTRANSFERASE [2]: 84.33 u/L
BLOOD UREA NITROGEN [2]: 15 mg/dL
CARBON DIOXIDE [2]: 32.33 mmol/L
CHLORIDE [2]: 102 MEQ/L
CHOLESTEROL [2]: 87 mg/dL
CREATINE PHOSPHOKINASE [2]: 331.67 u/L
CREATININE [2]: 0.23 mg/dL
GLUCOSE [2]: 134.67 mg/dL
LACTATE DEHYDROGENASE [2]: 176.33 u/L
LIPASE [2]: 12 u/L
PHOSPHORUS [2]: 10.83 mg/dL
POTASSIUM [2]: 5.73 MEQ/L
SODIUM [2]: 146.4 MEQ/L
TOTAL BILIRUBIN [2]: 0.1 mg/dL
TOTAL PROTEIN [2]: 5.9 G/DL
URIC ACID [2]: 0.4 mg/dL
ABSOLUTE BASOPHIL [3]: 0 CELLS/uL
ABSOLUTE EOSINOPHIL [3]: 0 CELLS/uL
ABSOLUTE LYMPHOCYTE [3]: 10466.67 CELLS/uL
ABSOLUTE MONOCYTE [3]: 94 CELLS/uL
ABSOLUTE SEGMENTED NEUTROPHIL [3]: 906 CELLS/uL
BASOPHIL [3]: 0%
EOSINOPHIL [3]: 0%
ERYTHROCYTE COUNT [3]: 6.09 x10E6/uL
HEMATOCRIT [3]: 39.27%
HEMOGLOBIN [3]: 15.2 G/DL
LEUKOCYTE COUNT [3]: 11.47 x10E3/uL
LYMPHOCYTE [3]: 91.67%
MEAN CORPUSCULAR HEMOGLOBIN [3]: 25.03 pg
MEAN CORPUSCULAR HEMOGLOBIN CONCENTRATION [3]: 38.73 G/DL
MEAN CORPUSCULAR VOLUME [3]: 64.6 fL
MONOCYTE [3]: 1%
NEUTROPHIL [3]: 7.33%
NUCLEATED RED BLOOD CELLS [3]: 0 /100WBC
PLATELET COUNT [3]: 962 x10E3/uL
ALANINE AMINOTRANSFERASE [3]: 79.33 u/L
ALBUMIN [3]: 4.3 G/DL
ALKALINE PHOSPHATASE [3]: 365 u/L
ASPARTATE AMINOTRANSFERASE [3]: 91.67 u/L
BLOOD UREA NITROGEN [3]: 17.67 mg/dL
CARBON DIOXIDE [3]: 32.33 mmol/L
CHLORIDE [3]: 101.67 MEQ/L
CHOLESTEROL [3]: 66.33 mg/dL
CREATINE PHOSPHOKINASE [3]: 679.67 u/L
CREATININE [3]: 0.18 mg/dL
GLUCOSE [3]: 138.33 mg/dL
LACTATE DEHYDROGENASE [3]: 145.33 u/L
LIPASE [3]: 11 u/L
PHOSPHORUS [3]: 11.17 mg/dL
POTASSIUM [3]: 6.28 MEQ/L
SODIUM [3]: 147.87 MEQ/L
TOTAL BILIRUBIN [3]: 0.13 mg/dL
TOTAL PROTEIN [3]: 6.17 G/DL
URIC ACID [3]: 0.83 mg/dL
